Consider one molecule from article doi:10.1101/2023.11.02.565309v1 (biorxiv, 2023).

In this assay the target is WT GluA2(Q)i (Rattus norvegicus, UniProt P19491). The assay is classed as cell-based. To be noted: positive allosteric modulator at 100 µM.
Chain of WT GluA2(Q)i (P19491 22-883 isoform P19491-2): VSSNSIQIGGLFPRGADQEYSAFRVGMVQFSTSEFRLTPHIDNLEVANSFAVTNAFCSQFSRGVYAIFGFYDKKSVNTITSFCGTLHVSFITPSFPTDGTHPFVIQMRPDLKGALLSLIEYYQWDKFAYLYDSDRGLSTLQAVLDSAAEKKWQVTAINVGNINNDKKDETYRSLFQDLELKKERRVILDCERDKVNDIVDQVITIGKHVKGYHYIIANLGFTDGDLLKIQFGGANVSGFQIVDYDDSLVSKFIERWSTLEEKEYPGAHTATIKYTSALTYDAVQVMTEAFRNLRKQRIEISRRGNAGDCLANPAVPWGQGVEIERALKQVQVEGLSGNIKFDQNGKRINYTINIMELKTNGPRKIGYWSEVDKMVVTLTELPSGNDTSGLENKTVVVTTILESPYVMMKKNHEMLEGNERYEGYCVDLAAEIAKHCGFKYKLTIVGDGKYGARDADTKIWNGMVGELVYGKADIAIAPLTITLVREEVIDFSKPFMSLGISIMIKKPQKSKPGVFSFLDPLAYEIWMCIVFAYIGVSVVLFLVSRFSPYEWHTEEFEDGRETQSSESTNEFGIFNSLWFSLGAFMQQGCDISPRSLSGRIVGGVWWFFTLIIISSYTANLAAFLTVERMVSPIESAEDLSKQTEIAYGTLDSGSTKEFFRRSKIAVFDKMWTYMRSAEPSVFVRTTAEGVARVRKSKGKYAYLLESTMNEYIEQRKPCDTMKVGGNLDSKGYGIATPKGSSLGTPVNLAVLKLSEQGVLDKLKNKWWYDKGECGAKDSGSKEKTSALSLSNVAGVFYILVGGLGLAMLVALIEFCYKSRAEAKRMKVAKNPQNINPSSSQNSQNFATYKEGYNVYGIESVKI

For `NS(=O)(=O)c1cc2c(cc1Cl)NC(C1CC3C=CC1C3)NS2(=O)=O` (stereo not shown) [cyclothiazide], the fold potentiation was ~ 3 fold.
